# Source: patent US5175180A, “N-substituted N-(alpha-triazolyl-toluyl)pyrrole compounds and use for treatment of circulatory disorders” (G. D. Searle & Co., priority 1990, dated 1992)
# Where two headings read alike, the source gives them in different places.
# What was measured:
# [1] = result in words, prior art; cited from earlier work
# angiotensin II = settings: result in words, prior art; cited from earlier work
# [2] = target: T1, rabbit aortic rings (angiotensin II response) (Oryctolagus cuniculus, UniProt P34976); experiment: Assay B: In Vitro Vascular Smooth Muscle Response for AII (aortic rings); assay type: cell-based, rabbit (male New Zealand white)
# T1 construct: The thoracic aorta was removed, cleaned of adherent fat and connective tissue; from tissue; host or cells: thoracic aorta rings without endothelium, male New Zealand white rabbit
# T1 sequence (P34976 1-359): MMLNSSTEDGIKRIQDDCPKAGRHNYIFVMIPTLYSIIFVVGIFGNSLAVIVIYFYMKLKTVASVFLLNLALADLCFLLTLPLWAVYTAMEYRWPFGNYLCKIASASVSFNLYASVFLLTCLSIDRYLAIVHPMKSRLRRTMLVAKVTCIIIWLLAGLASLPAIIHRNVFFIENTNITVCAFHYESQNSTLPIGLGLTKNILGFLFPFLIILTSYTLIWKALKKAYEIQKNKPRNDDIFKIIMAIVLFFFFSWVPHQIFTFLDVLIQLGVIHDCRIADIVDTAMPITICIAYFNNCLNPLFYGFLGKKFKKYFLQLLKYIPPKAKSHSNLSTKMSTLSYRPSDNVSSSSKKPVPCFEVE
# Experimental: The compounds of the invention were tested for antagonist activity in rabbit aortic rings. Male New Zealand white rabbits (2-2.5 kg) were sacrificed using an overdose of pentobarbital and exsanguinated via the carotid arteries. The thoracic aorta was removed, cleaned of adherent fat and connective tissue and then cut into 3-mm ring segments. The endothelium was removed from the rings by gently sliding a rolled-up piece of filter paper into the vessel lumen. The rings were then mounted in a water-jacketed tissue bath, maintained at 37° C., between moveable and fixed ends of a stainless steel wire with the moveable end attached to an FTO3 Grass transducer coupled to a Model 7D Grass Polygraph for recording isometric force responses. The bath was filled with 20 ml of oxygenated (95% oxygen/5% carbon dioxide) Krebs solution of the following composition (mM): 130 NaCl, 15 NaHCO3, […], 1.2 NaH2 PO4, 1.2 MgSO4, 2.5 CaCl2, and 11.4 glucose. The preparations were equilibrated for one hour before approximately one gram of passive tension was placed on the rings. Angiotensin II concentration-response curves were then recorded (3×10^-10 to 1×10^-5 M). […] The effectiveness of the test compound was expressed in terms of pA2 values and were calculated according to H. O. Schild [Br. J. Pharmacol. Chemother., 2, 189-206 (1947)]. […] Each test antagonist was evaluated in aorta rings from two rabbits.
# [3] = target: smooth muscle angiotensin II receptor; experiment: Assay A: Angiotensin II Binding Activity (displacement of 125I-angiotensin II, rat uterine membrane preparation); settings: 50% displacement of specifically bound 125I-AII; rat uterine membranes, 25° C., 60 min, pH 7.5
# Experimental: Compounds of the invention were tested for ability to bind to the smooth muscle angiotensin II receptor using a rat uterine membrane preparation. […] Other chemicals were obtained from Sigma Chemical Co. This assay was carried out according to the method of Douglas et al [Endocrinology, 106, 120-124 (1980)]. Rat uterine membranes were prepared from fresh tissue. All procedures were carried out at 4° C. Uteri were stripped of fat and homogenized in phosphate-buffered saline at pH 7.4 containing 5 mM EDTA. The homogenate was centrifuged at 1500×g for 20 min., and the supernatant was recentrifuged at 100,000×g for 60 min. The pellet was resuspended in buffer consisting of 2 mM EDTA and 50 mM Tris-HCl (pH 7.5) to a final protein concentration of 4 mg/ml. […] The reaction was initiated by the addition of membrane protein and the mixture was incubated at 25° C. for 60 min. The incubation was terminated with ice-cold 50 mM Tris-HCl (pH 7.5) and the mixture was filtered to separate membrane-bound labelled peptide from the free ligand. The incubation tube and filter were washed with ice-cold buffer. Filters were assayed for radioactivity in a Micromedic gamma counter. […] Specific binding was calculated as total binding minus nonspecific binding. […] Binding data were analyzed by a nonlinear least-squares curve fitting program.
# [4] = system: angiotensin II pressor response; experiment: Assay C: In Vivo Intraduodenal Pressor Assay Response for AII Antagonists; set-up: species or system rat (male Sprague-Dawley); settings: 30 mg/kg i.d., average of two rats
# Experimental: Angiotensin II injections were then given 5, 10, 20, 30, 45, 60, 75, 90, and 120 minutes after administration of the test compound and response of arterial pressure was monitored. […] Duration of action of a test compound was defined as the time from peak percent inhibition to 50% of peak.
SMILES,angiotensin II antagonist activity (angiotensin II),IC50 [3] [nM],other results
"Cc1ccc(C(c2ccc(-n3cccc3)cc2)n2cncn2)cc1 (stereo not shown) [1-[(4-methylphenyl)[4-(1H-pyrrol-1-yl)phenyl]methyl]-1H-1,2,4-triazole]",–,–,antibacterial and antifungal properties [1]: antibacterial and antifungal properties
CCCCc1nc(Cl)c(CC(=O)O)n1Cc1ccccc1Cl [2-n-butyl-4-chloro-1-(2-chlorobenzyl)imidazole-5-acetic acid],specific competitive angiotensin II antagonist activity,–,–
CCCCc1nc(Cl)c(CC(=O)O)n1Cc1ccccc1[N+](=O)[O-] [(2-butyl-4-chloro-1-(2-nitrobenzyl)imidazole-5-acetic acid],specific competitive angiotensin II antagonist activity,–,–
"CCCCc1nc(CCCC)n(Cc2ccc(-n3c(Br)ccc3-c3nnn[nH]3)cc2)n1 [Example 3, 5-[1-[4-[(3,5-di-n-butyl-1H-1,2,4-triazol-1-yl)methyl]phenyl]-5-bromo-1H-pyrrol-2-yl]-1H-tetrazole]",–,110,"Kb ([2]; rabbit aortic rings, 37° C., antagonist 5 min before AII challenge, two rabbits, Schild, read-out: pA2 (converted)): 9.55 nM"
"CCCCc1nc(CCCC)n(Cc2ccc(-n3c(Cl)cc(Cl)c3-c3nnn[nH]3)cc2)n1 [Example 5, 5-[1-[4-[(3,5-dibutyl-1H-1,2,4-triazol-1-yl)methyl]phenyl]-3,5-dichloro-1H-pyrrol-2-yl]-1H-tetrazole]",–,52,"Inhibition ([4]; percent inhibition of AII pressor response, AII 30 ng/kg i.v., ganglion-blocked anesthetized rats): 85%; Duration ([4]; time from peak percent inhibition to 50% of peak): 75 min; Kb [2]: 20 nM"
CNCC(=O)N[C@@H](CCCN=C(N)N)C(=O)N[C@H](C(=O)N[C@@H](Cc1ccc(O)cc1)C(=O)N[C@H](C(=O)N[C@@H](Cc1cnc[nH]1)C(=O)N1CCC[C@H]1C(=O)N[C@@H](C)C(=O)O)C(C)C)C(C)C [Saralasin],significant residual antagonist activity,–,–
